Source: patent publication US7186840B2, “Quinoline derivatives as anti-inflammatory agents” (Roche Palo Alto LLC, priority 2000, dated 2007)
pIC50: −log10 of the molar value.

Assays:
[1] = biological target: T1, COX II (Homo sapiens, UniProt P35354); experiment: Inhibition of COX II in vitro (radiometric assay); format: biochemical; conditions: partially purified enzyme, 10 min preincubation, 20 micromolar [14C]arachidonic acid
T1 construct: made in house
T1 sequence (P35354 18-604): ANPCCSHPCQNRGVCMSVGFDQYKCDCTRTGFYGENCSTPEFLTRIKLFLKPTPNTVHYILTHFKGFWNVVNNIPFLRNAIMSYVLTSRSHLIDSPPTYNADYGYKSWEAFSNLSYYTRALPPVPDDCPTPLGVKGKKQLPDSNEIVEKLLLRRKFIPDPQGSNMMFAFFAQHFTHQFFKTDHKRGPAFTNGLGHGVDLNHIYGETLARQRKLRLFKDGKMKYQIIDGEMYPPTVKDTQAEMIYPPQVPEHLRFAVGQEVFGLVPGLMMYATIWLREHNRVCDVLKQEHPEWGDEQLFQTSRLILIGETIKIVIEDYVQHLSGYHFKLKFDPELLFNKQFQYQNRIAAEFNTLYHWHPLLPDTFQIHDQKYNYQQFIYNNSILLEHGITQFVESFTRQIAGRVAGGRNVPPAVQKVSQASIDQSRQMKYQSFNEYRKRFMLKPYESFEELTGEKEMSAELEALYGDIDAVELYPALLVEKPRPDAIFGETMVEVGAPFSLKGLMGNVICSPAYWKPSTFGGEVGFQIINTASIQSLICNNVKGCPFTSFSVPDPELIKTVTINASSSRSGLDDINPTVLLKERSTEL
Description: (§1) The COX I and COX II inhibitory activity of compounds of this invention in vitro was determined using partially purified COX I and COX II enzymes, prepared as described in J. Barnett et. al., Biochim Biophys. Acta, 1209, 130–139 (1994).
(§2) COX I and COX II samples were diluted with Tris-HCl buffer (50 mM Tris-HCl, pH 7.9) containing 2 mM EDTA and 10% glycerol and reconstituted by incubating first with 2 mM phenol for 5 minutes and then with 1 micromolar hematin for an additional 5 minutes. 125 μl of the reconstituted COX I or COX II enzyme were preincubated for 10 minutes at room temperature in a shaking water bath with the compounds of the invention dissolved in 2–15 μl of DMSO or the carrier vehicles (control samples). The enzyme reaction was initiated by adding 25 μl of 1-[14 C]arachidonic acid (80,000–100,000 cpm/tube; 20 micromolar final concentration) and the reaction was allowed to continue for an additional 45 seconds. The reaction was terminated by adding 100 μl of 2N HCl and 750 μl water. An aliquot (950 μl) of the reaction mixture was loaded onto a 1 mL C18 Sep-Pak column (J. T. Baker, Phillipsburg, N.J.) which had been previously washed with 2–3 mL methanol and equilibrated with 5–6 mL distilled water. Oxygenated products were quantitatively eluted with 3 mL of acetonitrile/water/acetic acid (50:50:0.1, v/v) and the radioactivity in the eluate determined in a scintillation counter.
(§3) The COX inhibitory activities (expressed as IC50, the concentration causing 50% inhibition of the COX enzyme being assayed) of some exemplary compounds of the invention were: […]

[2] = biological target: T2, COX I (Homo sapiens, UniProt P23219); experiment: Inhibition of COX I in vitro (radiometric assay); format: biochemical; conditions: partially purified enzyme, 10 min preincubation, 20 micromolar [14C]arachidonic acid
T2 construct: made in house
Description: as §1, §2, §3

T2 sequence (P23219 24-599): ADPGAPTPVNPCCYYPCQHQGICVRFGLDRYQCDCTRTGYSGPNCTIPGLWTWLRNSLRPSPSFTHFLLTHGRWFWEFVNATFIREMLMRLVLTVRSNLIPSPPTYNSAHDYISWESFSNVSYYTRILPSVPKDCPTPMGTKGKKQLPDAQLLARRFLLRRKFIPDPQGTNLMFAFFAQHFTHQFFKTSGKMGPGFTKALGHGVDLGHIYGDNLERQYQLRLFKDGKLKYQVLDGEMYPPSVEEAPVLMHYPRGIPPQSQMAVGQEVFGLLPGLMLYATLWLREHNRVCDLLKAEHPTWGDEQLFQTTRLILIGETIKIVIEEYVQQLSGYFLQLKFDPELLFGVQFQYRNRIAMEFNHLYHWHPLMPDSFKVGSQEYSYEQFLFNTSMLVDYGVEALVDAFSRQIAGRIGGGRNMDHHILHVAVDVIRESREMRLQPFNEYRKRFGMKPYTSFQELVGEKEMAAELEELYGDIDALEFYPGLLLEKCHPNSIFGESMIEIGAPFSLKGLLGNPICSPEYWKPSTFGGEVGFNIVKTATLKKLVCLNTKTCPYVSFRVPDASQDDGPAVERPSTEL

pIC50 [1] | pIC50 [2] | SMILES
> 6.52 | < 4.40 | COc1ccc2nc(S(C)(=O)=O)ccc2c1Sc1ccc(Br)cc1 [Cpd 106, 5-(4-bromo-phenylsulfanyl)-2-methanesulfonyl-6-methoxy-quinoline]
> 6.52 | < 4.40 | COc1ccc2nc(S(C)(=O)=O)ccc2c1Sc1ccc(Cl)cc1Cl [Cpd 107, 5-(2,4-dichloro-phenylsulfanyl)-2-methanesulfonyl-6-methoxy-quinoline]

Second part, the compound before the results:

SMILES | pIC50 [1] | pIC50 [2]
COc1ccc2nc(S(C)(=O)=O)ccc2c1Sc1ccc(F)cc1F [Cpd 101, 5-(2,4-Difluoro-phenylsulfanyl)-2-methanesulfonyl-6-methoxy-quinoline] | > 6.70 | < 4.40
COc1ccc2nc(S(C)(=O)=O)ccc2c1Sc1ccccc1Cl [Cpd 104, 5-(2-chloro-phenylsulfanyl)-2-methanesulfonyl-6-methoxy-quinoline] | > 6.70 | < 4.40
COc1ccc2nc(S(C)(=O)=O)ccc2c1Sc1ccc(F)cc1Cl [Cpd 105, 5-(2-chloro-4-fluoro-phenylsulfanyl)-2-methanesulfonyl-6-methoxy-quinoline] | > 6.70 | < 4.40
